In US10226453B2, “3-(1H-indol-2-yl)-1H-pyrazolo[4,3-B]pyridines and therapeutic uses thereof” (Samumed, LLC, priority 2015, dated 2019):

Key:
Assay type in all cases: cell-based
[1] = tested on: Wnt activity (Sp5-Luc reporter, SW480 colon carcinoma cells); assay: Wnt activity screening assay: Sp5-Luc reporter gene in SW480 colon carcinoma cells; settings: Homo sapiens; for EC50: overnight incubation, 10-point curve from 10 μM
Procedure, shortened: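 First, hygromycin-selected SW480 Sp5-Luc reporter cells are seeded in medium with 1% fetal bovine serum and exposed overnight to compound (up to 10 μM, 0.1% DMSO). Next, luciferase signal is read by luminescence. Finally, EC50 is fitted, or percent inhibition at 10 μM is reported above 10 μM.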

[2] = tested on: primary human mesenchymal stem cells (hMSCs); assay: Induction of chondrogenesis in primary human mesenchymal stem cells (hMSCs), nodule count; settings: 144 h, 6 days; for Emax: relative to TGF-β3 (10 ng/mL) positive control, read-out: Max. Activity as % TGF-β3 activity; for EC50: concentration required to induce 50% levels of chondrogenesis of TGF-β3 control, read-out: Conc (nM) of 50% TGF-β3 activity
Description: Representative compounds were screened using primary human mesenchymal stem cells (hMSCs) to determine their ability to induce chondrogenesis (process by which cartilage is developed).
Primary human mesenchymal stem cells (hMSCs) were purchased from Lonza (Walkersville, Md.) and expanded in Mesenchymal Stem Cell Growth Media (Lonza). Cells between passage 3 and 6 were used for the experiments.
Each compound was dissolved in DMSO as a 10 mM stock and used to prepare compound source plates. Serial dilution (1:3, 6-point dose-response curves from 2700 nM to 10 nM) and compound transfer was performed using the ECHO 550 (Labcyte, Sunnyvale, Calif.) into 96-well clear bottom assay plates (Greiner Bio-One) with appropriate DMSO backfill for a final DMSO concentration of 0.03%. hMSCs were plated at 20,000 cells/well in 250 μL/well Incomplete Chondrogenic Induction Medium (Lonza; DMEM, dexamethasone, ascorbate, insulin-transferrin-selenium [ITS supplement], gentamycin-amphotericin [GA-1000], sodium pyruvate, proline and L-glutamine). TGF-β3 (10 ng/mL) was used as a positive control for differentiation while negative control wells were treated with 75 nL DMSO for normalization and calculating EC50 values. Cells were incubated at 37° C. and 5% CO2 for 6 days. To image chondrogenic nodules, the cells were fixed using 4% formaldehyde (Electron Microscopy Sciences), and stained with 2 μg/mL Rhodamine B (Sigma-Aldrich) and 20 μM Nile Red (Sigma-Aldrich) [Johnson K., et. al, A Stem Cell-Based Approach to Cartilage Repair, Science, (2012). 336(6082), 717-721]. The nodules imaged (4 images per well at 4× magnification) by excitation at 531 nm and emission at 625 nm and quantified using the CellInsight CX5 (Thermo Scientific). Number of nodules in each well was normalized to the average of 3 DMSO treated wells on the same plate using Excel (Microsoft Inc.). The normalized averages (fold change over DMSO) of 3 replicate wells for each compound concentration were calculated. Due to solubility limitations of some of the compounds, curve fitting was incomplete leading to inaccurate EC50 determinations.
Using TGF-β3 as a positive control, the concentration of representative compounds required to induce 50% levels of chondrogenesis is reported. In addition, the maximum activity of each compound and the respective dose that each compound reached maximum chondrogenesis activity is reported.

[3] = tested on: IL-6 (THP-1 cells); assay: IL-6 inhibition in LPS-stimulated THP-1 human monocyte cells (HTRF); settings: LPS 500 ng/mL; for EC50: 22 hours, IL6 HTRF; for inhibition at 10 µM: given where EC50 >10 μM, read-out: percent inhibition at 10 μM
Procedure, shortened: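 Readout is the 665/620 nm HTRF ratio for secreted IL-6, normalized to DMSO wells, with EC50 from a variable-slope four-parameter fit, or % inhibition at 10 μM when above 10 μM. Cells (1% FBS, 24 h beforehand) got compound for 2 h, then LPS 500 ng/mL for 22 h at 37° C; top dose 10 μM, 0.1% DMSO.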

Compound	EC50 [1] [nM]	EC50 [3] [nM]	EC50 [2] [nM]	Emax [2] [%]	inhibition at 10 µM [3] [%]	inhibition at 10 µM ([1]; given where EC50 >10 μM, 10 μM, read-out: percent inhibition at 10 μM) [%]
c1ccc(-c2cccc3[nH]c(-c4n[nH]c5ccc(-c6cncnc6)nc45)cc23)nc1 [Compound 167, 3-(4-(Pyridin-2-yl)-1H-indol-2-yl)-5-(pyrimidin-5-yl)-1H-pyrazolo[4,3-b] pyridine]	431	> 10000		41	12.8	
Cc1ccncc1-c1ccc2[nH]nc(-c3cc4c(-c5ccncc5)cccc4[nH]3)c2n1 [Compound 117, 5-(4-Methylpyridin-3-yl)-3-(4-(pyridin-4-yl)-1H-indol-2-yl)-1H-pyrazolo [4,3-b]pyridine]	299	21	900	703		
CN1CCN(c2cccc3[nH]c(-c4n[nH]c5ccc(-c6cncc(NC(=O)c7ccccc7)c6)nc45)cc23)CC1 [Compound 235, N-(5-(3-(4-(4-Methylpiperazin-1-yl)-1H-indol-2-yl)-1H-pyrazolo[4,3-b]pyridin-5-yl)pyridin-3-yl)benzamide]	4060	741		19		
Fc1ccccc1-c1cccc2[nH]c(-c3n[nH]c4ccc(-c5cncc(CN6CCCCC6)c5)nc34)cc12 [Compound 71, 3-(4-(2-Fluorophenyl)-1H-indol-2-yl)-5-(5-(piperidin-1-ylmethyl)pyridin-3-yl)-1H-pyrazolo[4,3-b]pyridine]	663	271	100	96		
CCCCC(=O)Nc1cncc(-c2ccc3[nH]nc(-c4cc5c(N6CCCCC6)cccc5[nH]4)c3n2)c1 [Compound 187, N-(5-(3-(4-(Piperidin-1-yl)-1H-indol-2-yl)-1H-pyrazolo[4,3-b]pyridin-5-yl)pyridin-3-yl)pentanamide]	572	85	100	69		
CN(C)Cc1cncc(-c2ccc3[nH]nc(-c4cc5c(-c6ccc(F)cc6)cccc5[nH]4)c3n2)c1 [Compound 41, 1-(5-(3-(4-(4-Fluorophenyl)-1H-indol-2-yl)-1H-pyrazolo[4,3-b]pyridin-5-yl)pyridin-3-yl)-N,N-dimethylmethanamine]	362	549	10	93		
CN(C)Cc1cncc(-c2ccc3[nH]nc(-c4cc5c(-c6cccnc6)cccc5[nH]4)c3n2)c1 [Compound 97, N,N-Dimethyl-1-(5-(3-(4-(pyridin-3-yl)-1H-indol-2-yl)-1H-pyrazolo[4,3-b]pyridin-5-yl)pyridin-3-yl)methanamine]	415	154		36		

The next lines start with results.

EC50 [1] [nM]	EC50 [3] [nM]	EC50 [2] [nM]	Compound	Emax [2] [%]	inhibition at 10 µM [3] [%]	inhibition at 10 µM ([1]; given where EC50 >10 μM, 10 μM, read-out: percent inhibition at 10 μM) [%]
1390	209		CN(C)CCNc1cc(F)cc(-c2cccc3[nH]c(-c4n[nH]c5ccc(-c6cncc(CN7CCCCC7)c6)nc45)cc23)c1 [Compound 463, N^1-(3-Fluoro-5-(2-(5-(5-(piperidin-1-ylmethyl)pyridin-3-yl)-1H-pyrazolo [4,3-b]pyridin-3-yl)-1H-indol-4-yl)phenyl)-N^2,N^2-dimethylethane-1,2-diamine]	48		
1600	52		O=C(CC1CCNCC1)Nc1cncc(-c2ccc3[nH]nc(-c4cc5c(-c6ccccn6)cccc5[nH]4)c3n2)c1 [Compound 621, 2-(Piperidin-4-yl)-N-(5-(3-(4-(pyridin-2-yl)-1H-indol-2-yl)-1H-pyrazolo[4,3-b]pyridin-5-yl)pyridin-3-yl)acetamide]	8		
> 10000	751	100	CN1CCN(c2cccc3[nH]c(-c4n[nH]c5ccc(-c6cncnc6)nc45)cc23)CC1 [Compound 251, 3-(4-(4-Methylpiperazin-1l-yl)-1H-indol-2-yl)-5-(pyrimidin-5-yl)-1H-pyrazolo[4,3-b]pyridine]	67		38.4
4990	27	900	c1cc(-c2ccncc2)c2cc(-c3n[nH]c4ccc(-c5cncc(OCCN6CCCC6)c5)nc34)[nH]c2c1 [Compound 606, 3-(4-(Pyridin-4-yl)-1H-indol-2-yl)-5-(5-(2-(pyrrolidin-1-yl)ethoxy)pyridin-3-yl)-1H-pyrazolo[4,3-b]pyridine]	74		
904	> 10000		CN(C)Cc1cncc(-c2ccc3[nH]nc(-c4cc5ccccc5[nH]4)c3n2)c1 [Compound 265, 1-(5-(3-(1H-Indol-2-yl)-1H-pyrazolo[4,3-b]pyridin-5-yl)pyridin-3-yl)-N,N-dimethylmethanamine]	21	0	
239	68	2700	CN(C)CCNc1cc(F)cc(-c2cccc3[nH]c(-c4n[nH]c5ccc(-c6cccnc6)nc45)cc23)c1 [Compound 452, N^1-(3-Fluoro-5-(2-(5-(pyridin-3-yl)-1H-pyrazolo[4,3-b]pyridin-3-yl)-1H-indol-4-yl)phenyl)-N^2,N^2-dimethylethane-1,2-diamine]	67		
600	1370	2700	CN(C)c1cncc(-c2ccc3[nH]nc(-c4cc5c(-c6ccoc6)cccc5[nH]4)c3n2)c1 [Compound 315, 5-(3-(4-(Furan-3-yl)-1H-indol-2-yl)-1H-pyrazolo[4,3-b]pyridin-5-yl)-N,N-dimethylpyridin-3-amine]	80		
162	101	900	Cc1ccncc1-c1ccc2[nH]nc(-c3cc4c(-c5cc(F)cc(CNS(C)(=O)=O)c5)cccc4[nH]3)c2n1 [Compound 481, N-(3-Fluoro-5-(2-(5-(4-methylpyridin-3-yl)-1H-pyrazolo[4,3-b]pyridin-3-yl)-1H-indol-4-yl)benzyl)methanesulfonamide]	143		
117	207	2700	FC1(F)CCN(Cc2cncc(-c3ccc4[nH]nc(-c5cc6ccccc6[nH]5)c4n3)c2)C1 [Compound 278, 5-(5-((3,3-Difluoropyrrolidin-1-yl)methyl)pyridin-3-yl)-3-(1H-indol-2-yl)-1H-pyrazolo[4,3-b]pyridine]	293		
3640	3570		c1cc(-c2ccoc2)c2cc(-c3n[nH]c4ccc(-c5cncc(CNCC6CCCC6)c5)nc34)[nH]c2c1 [Compound 333, 1-Cyclopentyl-N-((5-(3-(4-(furan-3-yl)-1H-indol-2-yl)-1H-pyrazolo[4,3-b]pyridin-5-yl)pyridin-3-yl)methyl)methanamine]	25		
